# According to patent US5773569A (Affymax Technologies N.V., priority 1995, dated 1998):
# Tests used:
# [1] = test system: FDCP-1/muER cells; test: Peptide-induced initiation of cell cycle measured by DNA content; format: cell-based, murine; conditions: 10 U/ml; ten hours postinduction; medium control 15%
# Protocol: F. Cellular response kinetics: Peptide-Induced Initiation of Cell Cycle Measured By DNA Content
# 1. Experimental Protocol: FDCP-1/muER cells were grown to stationery phase ≈3.0×10^6 cells/ml. […] Three million cells were collected at the following time points: 0, 6, 8, 10, and 12 hr. (see, FIG. 15). Cells were washed twice in cold PBS and fixed by resuspending the cell pellet in 100 μl of cold PBS followed by 900 μl of cold 70% ethanol. Cells were stained with 50 μg/ml of propidium iodine and fluorescence was measured on FACS Scan Flow cytometer. The percentage of cells in each phase was measured using the SOBR model of CelIFIT software, by Becton Dickinson.
# [2] = test system: human peripheral blood mononuclear cells; test: Colony assay on a human peripheral blood specimen; format: cell-based
# Protocol: (§1) G. Colony Assay: Murine Bone Marrow and Human Peripheml Blood Colony Assay
# (§2) A ten milliliter sample of peripheral blood was obtained from a healthy individual in a standard sterile heparin vacutainer tube. Murine bone marrow was obtained from the femurs of approximately 10 mice per experiment. All reagents were obtained from Stem Cell Technologies Inc. (Vancouver, Canada).
# (§3) a. Experimental Protocol: Briefly, a nucleated cell count was performed to establish the number and concentration of nucleated cells in the original sample. In the case of peripheral blood, the sample is subjected to centrifugation through a Ficoll-Hypaque (1.077 g per ml) gradient at 400 g for 30 minutes at room temperature. Mononuclear cells at the interface of the Ficoll-Hypaque solution are carefully removed and diluted to a total volume of about 10 ml. The cells obtained from murine bone marrow or human peripheral blood were collected by centrifugation and the supernatant was decanted. The pelleted cells were resuspended in fresh medium and subjected to collection as described above. The washed cells were diluted in Iscove's medium/2% fetal bovine serum to the following concentration for plating:
# Normal blood: 4×10^5 light density cells
# (§4) Cells were added to methyl cellulose per directions of the manufacturer. […] Equivalent cell numbers were plated in "Complete" methylcellulose medium to assess maximal colony formation. A control plate was run with each assay minus EPO and peptide to determine background colony formation. Colonies were scored after both 10 days and 18 days of incubation.
# [3] = test system: murine bone marrow cells; test: Colony assay, murine bone marrow; format: cell-based; conditions: EPO
# Protocol: as §1, §2, §3
# Normal marrow: 1×10^5 light density cells
# as §4
# [4] = test system: polycythemic exhypoxic mice (59Fe incorporation); test: Polycythemic exhypoxic mouse bioassay; format: in vivo; conditions: subcutaneous
# Protocol: J. Polycythemic Exhypoxic Mouse Bioassay
# Female BDF1 mice (18-20 gms) are subjected to a conditioning cycle (in hypobaric chambers) of 18 hrs. at 0.40±0.02 atm. and 6 hrs. at ambient pressure for a period of 14 days.
# Mice are maintained at ambient pressure for 72 hrs prior to administration of r-HuEPO or test samples. Test samples or r-HuEPO standard are diluted for injection into conditioned mice. The vehicle consists of: PBS containing 0.1% BSA (w/v). For each dilution, 0.5 ml is administered subcutaneously into each of 10 mice. ^59 Fe is administered 48 hrs. later. Blood samples are taken 48 hrs. following administration of ^59 Fe. Hematocrits and radioactivity measurements are determined for each sample. Dose range and results (two different assays) are set forth in Table 22 and FIGS. 17A-17C, infra.
# [5] = scored 2/23/94, EPO (METHOCULT)
substance,measurement,setting,value
"EPO: Erythropoietin, glycoprotein hormone with 165 amino acids; recombinant standard",cells in S phase,[1],approximately 45%
same,CFU-E,"[2]; scored 2/23/94, 3 U/ml",7
same,MBFU-E,"[2]; scored 2/23/94, 3 U/ml",7
same,CFU-E,[2]; [5],11
same,MBFU-E,[2]; [5],25
same,CFU-E,"[2]; scored 3/4/94, 3 U/ml",4
same,CFU-GM,"[2]; scored 3/4/94, 3 U/ml",3
same,MBFU-E,"[2]; scored 3/4/94, 3 U/ml",7
same,PBFU-E,"[2]; scored 3/4/94, 3 U/ml",7
same,CFU-E,"[2]; scored 3/4/94, EPO (METHOCULT)",1
same,CFU-GM,"[2]; scored 3/4/94, EPO (METHOCULT)",9
same,MBFU-E,"[2]; scored 3/4/94, EPO (METHOCULT)",11
same,PBFU-E,"[2]; scored 3/4/94, EPO (METHOCULT)",13
same,BFU-E colony-forming cell numbers,"[3]; Table 14 (1/28/94), 2/10/94",5
same,CFU-E colony-forming cell numbers,"[3]; Table 14 (1/28/94), 2/10/94",23
same,CFU-GM colony-forming cell numbers,"[3]; Table 14 (1/28/94), 2/10/94",3
same,BFU-E colony-forming cell numbers,"[3]; Table 14 (1/28/94), 2/21/94",30
same,CFU-E colony-forming cell numbers,"[3]; Table 14 (1/28/94), 2/21/94",0
same,CFU-GM colony-forming cell numbers,"[3]; Table 14 (1/28/94), 2/21/94",3
same,BFU-E colony-forming cell numbers,"[3]; Table 15 (2/21/94), 3/1/94",3
same,CFU-E colony-forming cell numbers,"[3]; Table 15 (2/21/94), 3/1/94",3
same,CFU-GM colony-forming cell numbers,"[3]; Table 15 (2/21/94), 3/1/94",> 10
same,CFU-E colony-forming cell numbers,"[3]; Table 15 (2/21/94), 3/14/94",0
same,CFU-GM colony-forming cell numbers,"[3]; Table 15 (2/21/94), 3/14/94",26
same,MBFU-E colony-forming cell numbers,"[3]; Table 15 (2/21/94), 3/14/94",0
same,PBFU-E colony-forming cell numbers,"[3]; Table 15 (2/21/94), 3/14/94",10
same,LOG MEAN,[4]; dose 0.025 U,1.65
same,LOG MEAN,[4]; dose 0.050 U,2.74
same,LOG MEAN,[4]; dose 0.100 U,3.28
